The target of test [1] is T1, AChE from electric eel (Electrophorus electricus) (Electrophorus electricus, UniProt O42275).
T1 construct: AChE (from electric eel) and BChE (from equine serum); purchased Sigma, St. Louis, MO, USA; host or cells: electric eel (animal source)
Kind of test: In vitro AChE inhibition, modified Ellman's method. Type of test: biochemical. On the procedure: (§1) The ability of all prepared compounds to inhibit AChE from electric eel (Electrophorus electricus) and BChE from equine serum (both purchased from Sigma, St. Louis, MO, USA) was determined in vitro using a modified Ellman’s method. […] The Ellman’s method is widely used for measuring cholinesterase activity and the effectivity of ChEIs. It is a simple, rapid and direct method to determine SH and –S–S– groups content in proteins. Cholinesterase activity is measured indirectly by quantifying the concentration of 5-thio-2-nitrobenzoic acid (TNB) ion formed in the reaction between disulfide reagent 5,5′-dithiobis-2-nitrobenzoic acid (DTNB) and thiocholine, a product of substrate (i.e., acetylthiocholine, ATCh) hydrolysis catalyzed by cholinesterase.
(§2) All tested compounds were dissolved in DMSO (concentration 0.01 M) and diluted in demineralized water (concentrations 0.001 M and 0.0001 M). The ability of tested compounds to inhibit AChE (from electric eel) and BChE (from equine serum) was determined using the modified Ellman’s method at 25 °C in the presence of phosphate buffered saline (PBS, 0.1 M, pH 7.4) in a glass cuvette with 1 cm optical path. The enzyme activity in total reaction mixture (2 mL) was 0.2 U/mL, the concentration of substrate ATCh 40 μM and the concentration of DTNB 0.1 mM for all reactions. The IC50 value was obtained from the dependence of v0/vi on the concentration of the tested compound (inhibitor), where v0 is the reaction rate of uninhibited reaction and vi is the reaction rate of inhibited reaction (for the given concentration of the inhibitor). First, v0 was determined. Into the cuvette PBS (0.1 M, pH 7.4), DTNB and ATCh were placed. The enzymatic reaction was started by adding the enzyme. […] The measurement was performed in triplicate at least, and average v0 was determined. Then, vi (for the given concentration of the inhibitor) was determined. Into the cuvette DTNB, ATCh, a chosen volume of the suitably diluted inhibitor (to achieve the required concentration of the inhibitor in the total reaction mixture) and a certain volume of PBS (to achieve the total volume of the reaction mixture 2 mL after adding the enzyme) were placed. The enzymatic reaction was started by adding the enzyme. […] For determination of IC50 values, twelve different concentrations of inhibitor were used and each measurement was performed in triplicate at least.
Background: In Ellman's method for cholinesterases, released thiocholine reacts with DTNB.

Test [2] addresses T2, BChE from equine serum (Equus caballus, UniProt P81908).
T2 construct: BChE (from equine serum); purchased Sigma, St. Louis, MO, USA; host or cells: equine serum
In words: In vitro BChE inhibition, modified Ellman's method. Type of test: biochemical. To be noted: for SI (index selectivity) = IC50 (AChE)/IC50 (BChE): ratio AChE/BChE, higher = more selective to BChE; for selectivity to BChE (in words): BChE vs AChE. As to the method: as §1, §2

For test [3], the system named is human monocytic leukemia THP-1 cells. Kind of test: In vitro cytotoxicity assay (WST-1). Type of test: cell-based. To be noted: 24 h, highest tested concentration 30 μM, read-out: tox. IC50. On the procedure: The cytotoxicity was evaluated as the IC50 value (compound concentration causing 50% inhibition of cell population proliferation) (see Table 1). […] Based on these observations, it can be concluded that the discussed compounds can be considered as non-toxic agents for subsequent design of novel drugs.
Human monocytic leukemia THP-1 cells were used for in vitro toxicity assay. Cells were obtained from the European Collection of Cell Cultures (ECACC, Salisbury, UK) and routinely cultured in RPMI 1640 (Lonza, Verviers, Belgium) medium supplemented with 10% fetal bovine serum (FBS, Sigma), 2% L-glutamine, 1% penicillin and streptomycin (Lonza, Verviers, Belgium) at 37 °C with 5% CO2. Cells were passaged at approximately one week intervals. The cytotoxicity of the compounds was determined using a WST-1 assay kit (Roche Diagnostics, Mannheim, Germany) according to the manufacturer’s instructions. The tested compounds were dissolved in DMSO and added in five increasing concentrations (0.37, 1.1, 3.3, 10, and 30 μM) to the cell suspension in the culture RPMI 1640 medium. The maximum concentration of DMSO (Sigma) in the assays never exceeded 0.1%. Subsequently, the cells were incubated for 24 h at 37 °C with 5% CO2. For WST-1 assays, cells were seeded into 96-well plates (5 × 10^4 cells/well in 100 μL culture medium) in triplicate in serum-free RPMI 1640 medium, and measurements were taken 24 h after the treatment with the compounds. The median inhibition concentration values, IC50, were deduced through the production of a dose-response curve. All data were evaluated using the GraphPad Prism 5.00 software (GraphPad Software, San Diego, CA, USA).
For orientation: Tetrazolium assays rely on reduction of a dye to a coloured formazan, in cell work by metabolically active cells.

From PMC6150311, “Proline-Based Carbamates as Cholinesterase Inhibitors” (Molecules : A Journal of Synthetic Chemistry and Natural …, 2017) come the findings set out here.

T2 sequence (P81908 whole entry): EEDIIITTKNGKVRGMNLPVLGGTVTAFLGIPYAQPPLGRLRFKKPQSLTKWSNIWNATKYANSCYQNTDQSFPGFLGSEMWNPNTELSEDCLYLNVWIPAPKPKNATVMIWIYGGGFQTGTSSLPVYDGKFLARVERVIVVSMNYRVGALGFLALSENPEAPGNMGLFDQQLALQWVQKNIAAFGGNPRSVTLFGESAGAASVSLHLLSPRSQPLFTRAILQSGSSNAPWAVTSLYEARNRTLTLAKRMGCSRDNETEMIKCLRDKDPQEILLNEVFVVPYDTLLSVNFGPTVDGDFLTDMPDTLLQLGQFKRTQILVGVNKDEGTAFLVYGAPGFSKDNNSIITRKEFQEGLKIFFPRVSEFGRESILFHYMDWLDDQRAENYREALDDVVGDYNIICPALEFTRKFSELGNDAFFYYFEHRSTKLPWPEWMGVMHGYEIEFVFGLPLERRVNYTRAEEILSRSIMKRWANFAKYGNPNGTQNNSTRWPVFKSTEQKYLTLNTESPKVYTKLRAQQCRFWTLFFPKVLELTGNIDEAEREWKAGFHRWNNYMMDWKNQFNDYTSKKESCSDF
T1 sequence (O42275 24-633): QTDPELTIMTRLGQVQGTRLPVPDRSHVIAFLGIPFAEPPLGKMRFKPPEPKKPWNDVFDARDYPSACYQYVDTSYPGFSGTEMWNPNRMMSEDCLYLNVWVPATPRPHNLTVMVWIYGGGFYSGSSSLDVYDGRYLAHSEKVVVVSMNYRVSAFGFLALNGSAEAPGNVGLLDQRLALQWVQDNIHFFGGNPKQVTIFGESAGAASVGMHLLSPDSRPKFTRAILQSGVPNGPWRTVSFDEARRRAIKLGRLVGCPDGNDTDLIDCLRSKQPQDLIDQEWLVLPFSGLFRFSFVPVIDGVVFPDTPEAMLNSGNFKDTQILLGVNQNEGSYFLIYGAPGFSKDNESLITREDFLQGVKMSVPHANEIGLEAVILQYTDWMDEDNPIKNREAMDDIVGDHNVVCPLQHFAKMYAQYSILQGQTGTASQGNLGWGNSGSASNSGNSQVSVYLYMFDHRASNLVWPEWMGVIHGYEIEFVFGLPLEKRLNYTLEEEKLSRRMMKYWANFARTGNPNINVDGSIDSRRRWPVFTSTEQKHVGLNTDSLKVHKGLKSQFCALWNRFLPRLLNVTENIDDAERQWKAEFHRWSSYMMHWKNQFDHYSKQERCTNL

By IC50 is commonly meant the concentration at which inhibition is half-maximal. On to `O=C(Nc1cccc([N+](=O)[O-])c1)[C@@H]1CCCN1C(=O)OCc1ccccc1` [Compound 8b, Benzyl (2S)-2-[(3-nitrophenyl)carbamoyl]pyrrolidine-1-carboxylate], for which the IC50 in test [1] was 65 ± 0.97 µM; in test [2], 55.9 ± 0.63 µM; in test [3], over 30 µM. For the same molecule, in test [2], the “SI (index selectivity) = IC50 (AChE)/IC50 (BChE)” value (“SI (index selectivity) = IC50” below) is on record as 1.16.
As for `O=C(Nc1cccc(Br)c1)[C@@H]1CCCN1C(=O)OCc1ccccc1` [Compound 6b, Benzyl (2S)-2-[(3-bromophenyl)carbamoyl]pyrrolidine-1-carboxylate], the values for the IC50 in test [1], in test [2] and in test [3] were 74.16 ± 0.2 µM, 47.68 ± 0.08 µM and over 30 µM, respectively. In test [2], the “SI (index selectivity) = IC50” value is 1.56.
The matching figures for `Cc1ccc(NC(=O)[C@@H]2CCCN2C(=O)OCc2ccccc2)cc1` [Compound 3c, Benzyl (2S)-2-[(4-methylphenyl)carbamoyl]pyrrolidine-1-carboxylate]: 123.4 ± 0.44 µM, 153 ± 2.29 µM, over 30 µM and 0.81.
The matching figures for `O=C(Nc1ccc(O)cc1)[C@@H]1CCCN1C(=O)OCc1ccccc1` [Compound 9c, Benzyl (2S)-2-[(4-hydroxyphenyl)carbamoyl]pyrrolidine-1-carboxylate]: 91.08 ± 0.27 µM, 133 ± 0.39 µM, over 30 µM and 0.68.
Taken in the same sequence, the figures for `Cc1ccccc1NC(=O)[C@@H]1CCCN1C(=O)OCc1ccccc1` [Compound 3a, Benzyl (2S)-2-[(2-methylphenyl)carbamoyl]pyrrolidine-1-carboxylate] were 61.9 ± 1.35 µM, 98.3 ± 5.88 µM, over 30 µM and 0.63.
`COc1ccccc1NC(=O)[C@@H]1CCCN1C(=O)OCc1ccccc1` [Compound 2a, Benzyl (2S)-2-[(2-methoxyphenyl)carbamoyl]pyrrolidine-1-carboxylate]: the IC50 in test [1] is 131 ± 1.29 µM; in test [2] it was 51.5 ± 0.75 µM; in test [3], over 30 µM. The “SI (index selectivity) = IC50” value in test [2] is given as 2.54.
Taken in the same sequence, the figures for `COc1ccc(NC(=O)[C@@H]2CCCN2C(=O)OCc2ccccc2)cc1` [Compound 2c, Benzyl (2S)-2-[(4-methoxyphenyl)carbamoyl]pyrrolidine-1-carboxylate] were 109.4 ± 0.22 µM, 117.4 ± 0.45 µM, over 30 µM and 0.93.
Taken in the same sequence, the figures for `O=C(Nc1ccc([N+](=O)[O-])cc1)[C@@H]1CCCN1C(=O)OCc1ccccc1` [Compound 8c, Benzyl (2S)-2-[(4-nitrophenyl)carbamoyl]pyrrolidine-1-carboxylate] were 84.52 ± 0.06 µM, 58.75 ± 0.27 µM, over 30 µM and 1.44.
For `O=C(Nc1ccccc1O)[C@@H]1CCCN1C(=O)OCc1ccccc1` [Compound 9a, Benzyl (2S)-2-[(2-hydroxyphenyl)carbamoyl]pyrrolidine-1-carboxylate], the IC50 in test [1] is 153 ± 9.97 µM; in test [2] it was 42 ± 1.26 µM; in test [3], over 30 µM. Moreover, the “selectivity to BChE (in words)” value in test [2] is recorded as “greater selectivity to BChE”. Further, the “SI (index selectivity) = IC50” value in test [2] worked out at 3.65.
Take `O=C(Nc1cccc(Cl)c1)[C@@H]1CCCN1C(=O)OCc1ccccc1` [Compound 5b, Benzyl (2S)-2-[(3-chlorophenyl)carbamoyl]pyrrolidine-1-carboxylate]: the values for the IC50 in test [1], in test [2] and in test [3] were 48.27 ± 0.11 µM, 64.2 ± 7.14 µM and over 30 µM, respectively. Further, the “SI (index selectivity) = IC50” value in test [2] is reported as 0.75.
Take `O=C(Nc1cccc(F)c1)[C@@H]1CCCN1C(=O)OCc1ccccc1` [Compound 4b, Benzyl (2S)-2-[(3-fluorophenyl)carbamoyl]pyrrolidine-1-carboxylate]: the half-inhibitory concentration (IC50) is 69.88 ± 0.21 µM in test [1], 34.61 ± 0.11 µM in test [2] and over 30 µM in test [3]. For the same molecule, the “SI (index selectivity) = IC50” value in test [2] was 2.02.
The matching figures for `O=C(Nc1ccccc1[N+](=O)[O-])[C@@H]1CCCN1C(=O)OCc1ccccc1` [Compound 8a, Benzyl (2S)-2-[(2-nitrophenyl)carbamoyl]pyrrolidine-1-carboxylate]: 152.21 ± 0.01 µM, 48.7 ± 0.8 µM, over 30 µM and 3.13.
Consider `O=C(Nc1ccc(Cl)cc1)[C@@H]1CCCN1C(=O)OCc1ccccc1` [Compound 5c, Benzyl (2S)-2-[(4-chlorophenyl)carbamoyl]pyrrolidine-1-carboxylate], for which the IC50 in test [1] was 77.3 ± 3.8 µM; in test [2], 147.3 ± 1.18 µM; in test [3] it was over 30 µM. In addition, the “SI (index selectivity) = IC50” value in test [2] came out at 0.52.
Taken in the same sequence, the figures for `O=C(Nc1ccccc1C(F)(F)F)[C@@H]1CCCN1C(=O)OCc1ccccc1` [Compound 7a, Benzyl (2S)-2-{[2-(trifluoromethyl)phenyl]carbamoyl}pyrrolidine-1-carboxylate] were 73.2 ± 2.88 µM, 44.9 ± 1.66 µM, over 30 µM and 1.63.
The matching figures for `O=C(Nc1ccc(Br)cc1)[C@@H]1CCCN1C(=O)OCc1ccccc1` [Compound 6c, Benzyl (2S)-2-[(4-bromophenyl)carbamoyl]pyrrolidine-1-carboxylate]: 81.32 ± 0.67 µM, 28.2 ± 0.5 µM, over 30 µM and 2.88.
Taken in the same sequence, the figures for `O=C(Nc1cccc(C(F)(F)F)c1)[C@@H]1CCCN1C(=O)OCc1ccccc1` [Compound 7b, Benzyl (2S)-2-{[3-(trifluoromethyl)phenyl]carbamoyl}pyrrolidine-1-carboxylate] were 68.91 ± 0.06 µM, 39.5 ± 1.4 µM, over 30 µM and 1.75.
Regarding `O=C(Nc1ccccc1F)[C@@H]1CCCN1C(=O)OCc1ccccc1` [Compound 4a, Benzyl (2S)-2-[(2-fluorophenyl)carbamoyl]pyrrolidine-1-carboxylate], the IC50 in test [1] was 51.9 ± 0.76 µM; in test [2], 60 µM; in test [3] it was over 30 µM. Besides, the “SI (index selectivity) = IC50” value in test [2] is on record as 0.86.
The matching figures for `O=C(Nc1cccc(O)c1)[C@@H]1CCCN1C(=O)OCc1ccccc1` [Compound 9b, Benzyl (2S)-2-[(3-hydroxyphenyl)carbamoyl]pyrrolidine-1-carboxylate]: 122 ± 1.38 µM, 86.22 ± 0.4 µM, over 30 µM and 1.41.
Take `O=C(Nc1ccccc1Br)[C@@H]1CCCN1C(=O)OCc1ccccc1` [Compound 6a, Benzyl (2S)-2-[(2-bromophenyl)carbamoyl]pyrrolidine-1-carboxylate]: the IC50 in test [1] was 84.1 ± 4.39 µM; in test [2], 27.4 ± 0.85 µM; in test [3] it was over 30 µM. For the same molecule, the “selectivity to BChE (in words)” value in test [2] is listed as “greater selectivity to BChE”. Also, the “SI (index selectivity) = IC50” value in test [2] was found to be 3.07.
